Assay results taken from the supplement of paper PMC10307832.

How the values were obtained:
Experiment in all cases: relative viability (nuclei count vs DMSO), 5 days (fraction); higher = more cells survive
Venetoclax + Luminespib = compound: CC1(C)CCC(CN2CCN(c3ccc(C(=O)NS(=O)(=O)c4ccc(NCC5CCOCC5)c([N+](=O)[O-])c4)c(Oc4cnc5[nH]ccc5c4)c3)CC2)=C(c2ccc(Cl)cc2)C1 [Venetoclax] + CCNC(=O)c1noc(-c2cc(C(C)C)c(O)cc2O)c1-c1ccc(CN2CCOCC2)cc1 [Luminespib] (partner 0.01 µM)
In short: (§1)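 Nuclei were stained with Hoechst during a one-step fixation (final 0.05% Triton X-100, 1% formaldehyde, 1 ug/ml Hoechst) carried out 5 days after dosing, then counted on 4× images. The cells, lung cancer lines in 1536-well plates, had been dosed by pin tool the day after seeding with one drug alone or a fixed anchor-drug dose plus five library-drug doses (not always all listed) in √10 steps. Relative viability is the nuclei count in treated wells divided by that in vehicle wells, and each value is the median of duplicate plates.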

Venetoclax + Pictilisib = compound: CC1(C)CCC(CN2CCN(c3ccc(C(=O)NS(=O)(=O)c4ccc(NCC5CCOCC5)c([N+](=O)[O-])c4)c(Oc4cnc5[nH]ccc5c4)c3)CC2)=C(c2ccc(Cl)cc2)C1 [Venetoclax] + CS(=O)(=O)N1CCN(Cc2cc3nc(-c4cccc5[nH]ncc45)nc(N4CCOCC4)c3s2)CC1 [Pictilisib] (partner 1 µM)
In short: as §1

Selumetinib + AZD7762 = compound: Cn1cnc2c(F)c(Nc3ccc(Br)cc3Cl)c(C(=O)NOCCO)cc21 [Selumetinib] + NC(=O)Nc1cc(-c2cccc(F)c2)sc1C(=O)N[C@H]1CCCNC1 [AZD7762] (partner 0.2 µM)
In short: as §1

Selumetinib + OSI-027 = compound: Cn1cnc2c(F)c(Nc3ccc(Br)cc3Cl)c(C(=O)NOCCO)cc21 [Selumetinib] + COc1cccc2cc(-c3nc([C@H]4CC[C@H](C(=O)O)CC4)n4ncnc(N)c34)[nH]c12 [OSI-027] (partner 0.5 µM)
In short: as §1

Cell Line	relative viability (Venetoclax + Luminespib; first compound 0.01 µM)	relative viability (Venetoclax + Luminespib; first compound 0.03162 µM)	relative viability (Venetoclax + Luminespib; first compound 0.1 µM)	relative viability (Venetoclax + Luminespib; first compound 0.3162 µM)	relative viability (Venetoclax + Luminespib; first compound 1 µM)	relative viability (Venetoclax + Pictilisib; first compound 0.01 µM)	relative viability (Venetoclax + Pictilisib; first compound 0.03162 µM)	relative viability (Venetoclax + Pictilisib; first compound 0.1 µM)	relative viability (Venetoclax + Pictilisib; first compound 0.3162 µM)	relative viability (Venetoclax + Pictilisib; first compound 1 µM)	relative viability (Selumetinib + AZD7762; first compound 0.02 µM)	relative viability (Selumetinib + AZD7762; first compound 0.06325 µM)	relative viability (Selumetinib + AZD7762; first compound 0.2 µM)	relative viability (Selumetinib + AZD7762; first compound 0.6325 µM)	relative viability (Selumetinib + OSI-027; first compound 0.02 µM)	relative viability (Selumetinib + OSI-027; first compound 0.06325 µM)	relative viability (Selumetinib + OSI-027; first compound 0.2 µM)	relative viability (Selumetinib + OSI-027; first compound 0.6325 µM)
LOU-NH91	0.271	0.374	0.345	0.336	0.326	0.515	0.565	0.54	0.523	0.53	0.754	0.758	0.696	0.733	0.701	0.68	0.646	0.615
LU99A	0.232	0.256	0.262	0.227	0.37	0.321	0.357	0.362	0.297	0.319	0.461	0.367	0.397	0.342	0.338	0.308	0.331	0.301
LXF-289	0.787	0.7	0.61	0.663	0.472	0.718	0.739	0.795	0.771	0.762	0.958	0.887	0.829	0.85	0.796	0.73	0.648	0.519
NCI-H23	0.222	0.226	0.215	0.228	0.22	0.595	0.501	0.381	0.479	0.508	0.265	0.315	0.222	0.195	0.605	0.561	0.526	0.443
NCI-H322M	1	0.842	0.814	0.944	0.941	0.558	0.511	0.488	0.532	0.487	0.453	0.443	0.45	0.527	0.487	0.434	0.477	0.45
NCI-H358	0.402	0.313	0.245	0.579	0.321	0.323	0.364	0.3	0.327	0.363	0.374	0.349	0.385	0.367	0.435	0.359	0.312	0.279
NCI-H441	0.337	0.372	0.434	0.299	0.427	0.611	0.479	0.431	0.46	0.444	1.07	0.974	1.01	0.69	0.593	0.494	0.598	0.517
NCI-H460	0.0354	0.0317	0.0311	0.0401	0.0316	0.394	0.43	0.316	0.385	0.367	0.695	0.663	0.598	0.662	0.52	0.425	0.227	0.225
NCI-H596	1.03	0.947	1.03	0.994	1.06	0.402	0.408	0.354	0.391	0.364	1.06	1.14	1.02	0.768	0.775	0.673	0.693	0.571
NCI-H647	0.167	0.206	0.124	0.123	0.151	0.443	0.386	0.435	0.439	0.45	0.466	0.441	0.366	0.271	0.717	0.512	0.614	0.478
NCI-H650	0.805	0.837	0.751	0.954	0.735	0.805	0.855		0.842	0.797	1.37	1.14	1.06	1.15	0.66	0.806	0.825	0.826
NCI-H727	0.465	0.439	0.209	0.303	0.357	0.354	0.419	0.404	0.37	0.398	0.455	0.428	0.322	0.427	0.603	0.395	0.332	0.427
NCI-H838	0.408	0.255	0.24	0.378	0.275	0.661	0.48	0.474	0.465	0.534	0.87	0.844	0.878	0.824	0.31	0.327	0.315	0.252
NCI-H1355	0.748	0.759	0.667	0.782	0.778	0.493	0.547	0.377	0.467	0.404	0.818	0.711	0.748	0.565	0.343	0.33	0.278	0.277
NCI-H1395	0.661	0.805	0.517	0.793	0.658	0.643	0.74	0.611	0.602	0.633	0.389	0.38	0.391	0.355	0.625	0.641	0.628	0.631
NCI-H1437	1.07	1.19	1.13	1.15	1.07	0.538	0.443	0.435	0.386	0.404	1.03	0.941	0.834	0.603	0.802	0.56	0.531	0.324
NCI-H1651	0.872	0.882	0.817	0.8	0.79	0.6	0.626	0.481	0.482	0.533	0.44	0.42	0.445	0.495	0.815	0.585	0.627	0.693
